Among the data in US7018989B2, “Chemical compounds” (University College Cardiff Consultants, LTD, priority 1995, dated 2006) are EC50 values, retold here.

Counter-ions that a name gives are not always drawn. Like-named read-outs stand apart in the source and are kept apart here.

The subject of one assay is HIV-1. Description: microbe, parasite or virus in culture. Particulars: read-out: HIV1 CEM: EC50 for inhibition of HIV-1 in CEM cells. Here is the method: (§1) Cells were infected with HIV-1 as previously described [Balzarini et al. AIDS (1991), 5, 21–28]. Briefly, 5×10^5 cells per milliliter were infected with HIV-1 or HIV-2 at 100 CCID50 (50% cell culture infective dose) per milliliter of cell suspension. Then 100 μL of the infected cell suspension was transferred to microtiter plate wells and mixed with 100 μL of the appropriate dilutions of the test compounds. After 4 days giant cell formation was recorded microscopically in the HIV-infected cell cultures [CEM], and after 5 days the number of viable cells was determined by trypan blue staining of the HIV-infected cell cultures [MT4].
(§2) The data columns are, in order: • HIV1 MT4: EC50 in μM for inhibition of HIV-1 in MT4 cells. • HIV2 MT4: EC50 in μM for inhibition of HIV-2 in MT4 cells. • CC50 MT4: CC50 in μM for toxicity to MT-4 cells. • HIV1 CEM: EC50 in μM for inhibition of HIV-1 in CEM cells. • HIV2 CEM: EC50 in μM for inhibition of HIV-2 in CEM cells. • HIV2 CEM-TK-: EC50 in μM for inhibition of HIV-2 in CEM/TK^− cells. • CC50 CEM: CC50 in μM for toxicity to CEM cells. • EC50 MSV: EC50 in μM for inhibition of MSV • MCC MSV: Minimum cytotoxic concentration in MSV assay

The test system of assay [1] is HIV-2. Description: Inhibition of HIV-2 in CEM cells (giant cell formation). Type of assay: cell-based. The following applies: Table 6; mean of two or more repeat experiments; read-out: HIV2 CEM: EC50 for inhibition of HIV-2 in CEM cells. The method, then:
as §1, §2

The test system of assay [2] is HIV-2. Kind of assay: Inhibition of HIV-2 in CEM/TK- cells. Type of assay: cell-based. The following applies: Table 6; mean of two or more repeat experiments; read-out: HIV2 CEM-TK-: EC50 for inhibition of HIV-2 in CEM/TK^− cells. The method, then: as §1, §2
Where [3] appears, read: Table 6, mean of two or more repeat experiments.

Turning to `Cc1cn([C@H]2C=C[C@@H](CO)O2)c(=O)[nH]c1=O` [Compound 268, reference compound], the EC50 in the assay on HIV-1 (setting [3]) is 0.24 µM; with HIV-2 [1] it was 1.2 µM; with HIV-2 [2], > 100 µM.

Regarding `COC(=O)C(NP(=O)(OCC1C=CC(n2cc(C)c(=O)[nH]c2=O)O1)OCC(Cl)(Cl)Cl)C(C)C` (stereo not drawn) [Compound 322], the EC50 in the assay with HIV-1 (setting [3]) is 29 µM; in the assay on HIV-2 [1] it was 71 µM; in the assay on HIV-2 [2], 59 µM.

In the case of `COC(=O)C(CCSC)NP(=O)(OCC1C=CC(n2cc(C)c(=O)[nH]c2=O)O1)OCC(Cl)(Cl)Cl` (stereo not drawn) [Compound 345], the figures for the EC50 in the assay with HIV-1 (setting [3]), in the assay with HIV-2 [1] and in the assay on HIV-2 [2] were 8 µM, 11 µM and 10 µM, respectively.

As for `CCCNP(=O)(OCC1C=CC(n2cc(C)c(=O)[nH]c2=O)O1)OCC(Cl)(Cl)Cl` (stereo not drawn) [Compound 401], the EC50 in the assay with HIV-1 (setting [3]), with HIV-2 [1] and in the assay with HIV-2 [2] was > 210 µM each time.

Regarding `CCCCNP(=O)(OCC1C=CC(n2cc(C)c(=O)[nH]c2=O)O1)OCC(Cl)(Cl)Cl` (stereo not drawn) [Compound 402], the EC50 is 118 µM in the assay with HIV-1 (setting [3]), > 204 µM in the assay with HIV-2 [1] and 161 µM in the assay with HIV-2 [2].

Consider `CCNP(=O)(OCC1C=CC(n2cc(C)c(=O)[nH]c2=O)O1)OCC(Cl)(Cl)Cl` (stereo not drawn) [Compound 403], for which the EC50 in the assay on HIV-1 (setting [3]) was > 216 µM; in the assay on HIV-2 [1], > 216 µM; in the assay with HIV-2 [2], > 218 µM.

Turning to `CCCOP(=O)(OCC1C=CC(n2cc(C)c(=O)[nH]c2=O)O1)OCC(Cl)(Cl)Cl` (stereo not drawn) [Compound 404], the EC50 in the assay on HIV-1 (setting [3]), in the assay on HIV-2 [1] and in the assay on HIV-2 [2] was > 209 µM in each case.

As for `Cc1cn(C2C=CC(COP(=O)(O)OCC(Cl)(Cl)Cl)O2)c(=O)[nH]c1=O` (stereo not drawn) [Compound 407], the figures for the EC50 in the assay on HIV-2 [1] and in the assay with HIV-2 [2] were 0.5 µM and 86 µM, respectively.

As for `O=c1ccn([C@H]2C=C[C@@H](CO)O2)c(=O)[nH]1` [Compound 446, reference compound], the EC50 in the assay with HIV-1 (setting [3]), in the assay on HIV-2 [1] and in the assay on HIV-2 [2] was > 95 µM each time.

For `Cc1cn(C2C=CC(CNP(=O)(OC(C)C)OC(C)C)O2)c(=O)[nH]c1=O` (stereo not drawn) [Compound 479], the EC50 in the assay on HIV-1 (setting [3]), in the assay on HIV-2 [1] and in the assay with HIV-2 [2] was > 258 µM each time.

As for `CCCCNP(=O)(OCC1C=CC(n2cc(C)c(=O)[nH]c2=O)O1)OCC(F)(F)F` (stereo not drawn) [Compound 504], the figures for the EC50 with HIV-1 (setting [3]), with HIV-2 [1] and with HIV-2 [2] were 73 µM, 116 µM and ≥ 226 µM, respectively.

Turning to `COC(=O)C(C)NP(=O)(OCC1C=CC(n2ccc(=O)[nH]c2=O)O1)Oc1cccc(C(F)(F)F)c1` (stereo not drawn) [Compound 547], the EC50 was > 3520 µM in the assay with HIV-1 (setting [3]), > 7 µM in the assay on HIV-2 [1] and > 35 µM in the assay with HIV-2 [2].

Consider `CCOP(=O)(OCC)OCC1C=CC(n2ccc(=O)[nH]c2=O)O1` (stereo not drawn) [Compound 551], for which the EC50 in the assay on HIV-1 (setting [3]), with HIV-2 [1] and with HIV-2 [2] was > 58 µM throughout.

Turning to `COC(=O)C(C)NP(=O)(OCC1C=CC(n2ccc(=O)[nH]c2=O)O1)Oc1ccccc1` (stereo not drawn) [Compound 558], the EC50 in the assay with HIV-1 (setting [3]), in the assay with HIV-2 [1] and in the assay with HIV-2 [2] was > 44 µM in each case.

`O=c1ccn(C2C=CC(COP(=O)(OCC(Cl)(Cl)Cl)OCC(Cl)(Cl)Cl)O2)c(=O)[nH]1` (stereo not drawn) [Compound 562]: the EC50 in the assay on HIV-1 (setting [3]), in the assay with HIV-2 [1] and in the assay with HIV-2 [2] was > 36 µM throughout.

On to `CCCNP(=O)(OCC)OCC1C=CC(n2cc(C)c(=O)[nH]c2=O)O1` (stereo not drawn) [Compound 563], for which the EC50 in the assay on HIV-1 (setting [3]), in the assay with HIV-2 [1] and with HIV-2 [2] was > 268 µM in each case.

Take `CC[C@H](C)[C@H](NP(=O)(OCC1C=CC(n2cc(C)c(=O)[nH]c2=O)O1)Oc1ccccc1)C(=O)OC` (stereo partly drawn) [Compound 1186, 2′,3′-dideoxy-2′,3′-didehydrothymidino 5′-(phenylmethoxyisoleucinyl phosphate)]: in the assay on HIV-1 (setting [3]), the EC50 amounted to 5 µM.

For `Cc1cn([C@H]2C=C[C@@H](COP(=O)(O)NC(Cc3ccccc3)C(=O)O)O2)c(=O)[nH]c1=O` (stereo partly drawn) [Compound 1187, 2′,3′-dideoxy-2′,3′-didehydrothymidine 5′-(phenylalaninyl phosphate)], the EC50 in the assay with HIV-1 (setting [3]) was found to be 3.5 µM.

As for `Cc1cn(C2C=CC(COP(=O)(NC(C)C(=O)OCC3CCCCC3)Oc3ccccc3)O2)c(=O)[nH]c1=O` (stereo not drawn) [Compound 1189], in the assay on HIV-1 (setting [3]), the EC50 came out at 0.04 µM.

Regarding `Cc1cn(C2C=CC(COP(=O)(O)NC(C(=O)O)C(C)C)O2)c(=O)[nH]c1=O` (stereo not drawn) [Compound 1190, 2′,3′-dideoxy-2′,3′-didehydrothymidine 5′-(valinyl phosphate)], the EC50 with HIV-1 (setting [3]) was found to be 0.7 µM.

For the compound `Cc1cn(C2C=CC(COP(=O)(O)NC(CC(C)C)C(=O)O)O2)c(=O)[nH]c1=O` (stereo not drawn) [Compound 1192, 2′,3′-dideoxy-2′,3′-didehydrothymidine 5′-(leucinyl phosphate)], the EC50 in the assay with HIV-1 (setting [3]) came to 1.4 µM.

Turning to `Cc1cn(C2C=CC(COP(=O)(Oc3ccccc3)N3CCCC3C(=O)O)O2)c(=O)[nH]c1=O` (stereo not drawn) [Compound 1194, 2′,3′-dideoxy-2′,3′-didehydrothymidine 5′-(phenylprolinyl phosphate)], in the assay on HIV-1 (setting [3]), the EC50 was 6 µM.

For the compound `COC(=O)CCC(NP(=O)(OCC1C=CC(n2cc(C)c(=O)[nH]c2=O)O1)Oc1ccccc1)C(=O)OC` (stereo not drawn) [Compound 1196, 2′,3′-Dideoxy-2′,3′-didehydrothymidine-5′-(phenyldimethoxyglutaminyl phosphoramidate], the EC50 with HIV-1 (setting [3]) came out at 1.2 µM.

Consider `COC(=O)CCNP(=O)(OCC1C=CC(n2cc(C)c(=O)[nH]c2=O)O1)Oc1ccccc1` (stereo not drawn) [Compound 1197, 2′,3′-Dideoxy-2′,3′-didhydrothymidine-5′-(phenylmethoxy-B-alaninyl) phosphate], for which, in the assay with HIV-1 (setting [3]), the EC50 was > 250 µM.

On to `CCC(NP(=O)(OCC1C=CC(n2cc(C)c(=O)[nH]c2=O)O1)Oc1ccccc1)C(=O)OC` (stereo not drawn) [Compound 1198, 2′,3′-Dideoxy-2′,3′-didehydrothymidine-5′-(phenylmethoxy-α-aminobutylryl) phosphate], for which, in the assay on HIV-1 (setting [3]), the EC50 is > 250 µM.

`COC(=O)CCCCCNP(=O)(OCC1C=CC(n2cc(C)c(=O)[nH]c2=O)O1)Oc1ccccc1` (stereo not drawn) [Compound 1199, 2′,3′-Dideoxy-2′,3′-didehydrothymidine-5′-(phenylmethoxy-6-aminocaproyl) phosphate]: the EC50 in the assay with HIV-1 (setting [3]) was > 250 µM.

Regarding `COC(=O)C(C)(C)NP(=O)(OCC1C=CC(n2cc(C)c(=O)[nH]c2=O)O1)Oc1ccccc1` (stereo not drawn) [Compound 1200, 2′,3′-Dideoxy-2′,3′-didehydrothymidine-5′-(phenylmethoxy-2-aminoisobutylryl) phosphate], in the assay on HIV-1 (setting [3]), the EC50 came to 0.12 µM.

Turning to `COC(=O)C[C@H](NP(=O)(OC[C@@H]1C=C[C@H](n2cc(C)c(=O)[nH]c2=O)O1)Oc1ccccc1)C(=O)OC` (stereo partly drawn) [Compound 1214, 2′,3′-Dideoxy-2′,3′-didehydrothymidine-5′-(phenyldimethoxyasparaginyl) phosphoramidate], the EC50 in the assay on HIV-1 (setting [3]) stood at 0.6 µM.

As for `COC(=O)C(Cc1c[nH]c2ccccc12)NP(=O)(OC[C@@H]1C=C[C@H](n2cc(C)c(=O)[nH]c2=O)O1)Oc1ccccc1` (stereo partly drawn) [Compound 1215, 2′,3′-Dideoxy-2′,3′-didehydrothymidine-5′-(phenylmethoxytryptophanyl) phosphoramidate], in the assay with HIV-1 (setting [3]), the EC50 amounted to 4 µM.

As to `Cc1cn(C2C=CC(COP(=O)(O)NCCC(=O)O)O2)c(=O)[nH]c1=O` (stereo not drawn) [Compound 1216, 2′,3′-Dideoxy-2′,3′-didehydrothymidine-5′-(β-alaninyl) phosphate ammonium salt], in the assay on HIV-1 (setting [3]), the EC50 turned out to be 0.7 µM.

For `CCCCCC(=O)OP(=O)(O)OC[C@@H]1C=C[C@H](n2cc(C)c(=O)[nH]c2=O)O1` [Compound 1217, 2′,3′-Dideoxy-2′,3′-didehydrothymidine-5′-(caproyl) phosphate ammonium salt], the EC50 in the assay on HIV-1 (setting [3]) was 1.4 µM.

As to `CCCCCOC(=O)C(C)NP(=O)(OCC1C=CC(n2cc(C)c(=O)[nH]c2=O)O1)Oc1ccccc1` (stereo not drawn) [Compound 1218], in the assay on HIV-1 (setting [3]), the EC50 is < 0.08 µM.

Turning to `Cc1cn([C@H]2C=C[C@@H](COP(=O)(N[C@@H](C)C(=O)OCC(C)(C)C)Oc3ccccc3)O2)c(=O)[nH]c1=O` (stereo partly drawn) [Compound 1219], in the assay on HIV-1 (setting [3]), the EC50 was < 0.08 µM.

As for `Cc1cn(C2C=CC(COP(=O)(NC(C)C(=O)OCCc3ccccc3)Oc3ccccc3)O2)c(=O)[nH]c1=O` (stereo not drawn) [Compound 1220], the EC50 in the assay with HIV-1 (setting [3]) came to 0.7 µM.

Consider `Cc1cn([C@H]2C=C[C@@H](COP(=O)(O)OC(=O)CCCN)O2)c(=O)[nH]c1=O` [Compound 1224, 2′,3′-Dideoxy-2′,3′-didehydrothymidine-5′(γ-aminobutylryl) phosphate ammonium salt], for which, in the assay with HIV-1 (setting [3]), the EC50 was determined as 1 µM.

On to `Cc1cn(C2C=CC(COP(=O)(NC(C)C(=O)Oc3cccc4ccccc34)Oc3ccccc3)O2)c(=O)[nH]c1=O` (stereo not drawn) [Compound 1226], for which, in the assay on HIV-1 (setting [3]), the EC50 was < 0.08 µM.

Regarding `Cc1cn(C2C=CC(COP(=O)(NC(C)C(=O)Oc3ccc4ccccc4c3)Oc3ccccc3)O2)c(=O)[nH]c1=O` (stereo not drawn) [Compound 1227], the EC50 with HIV-1 (setting [3]) is < 0.08 µM.

Take `COC(=O)C(C)NP(=O)(OCC1CCC(n2cc(C)c(=O)[nH]c2=O)O1)Oc1ccccc1` (stereo not drawn) [Cpd 1225]: the EC50 with HIV-1 (CEM cells, HIV-1) amounted to 1.2 µM.
